Here are results for 1 compound from ChEMBL document CHEMBL3994618, “The long story of camptothecin: From traditional medicine to drugs” (Bioorg Med Chem Lett, 2017).

A short description of this data set: Drug excretion in human urine upto 24 hrs. The format is ADME. The following applies: read-out: Drug excretion.

Molecules are shown by their SMILES.

For `CC[C@@]1(O)C(=O)OCc2c1cc1n(c2=O)Cc2cc3c(CN(C)C)c(O)ccc3nc2-1` [TOPOTECAN], the dose excreted at 24 h was 40%.
